In patent US9796733B2, “Imidazo-pyrazine derivatives useful as soluble guanylate cyclase activators” (Merck Sharp & Dohme Corp., priority 2014, dated 2017):

How the values were obtained:
sGC α1/β1 heterodimer = biological target: T1, sGC α1/β1 heterodimer (Homo sapiens, UniProt Q02108+Q02153); experiment: Cell-based sGC functional assay (CASA assay): cGMP generation in CHO-K1/sGC cells, HTRF detection; conditions: for Emax: CHO-K1, percent activation relative to standard Compound A in CHO-K1/sGC cells, read-out: % Act.; for EC50: inflection point (IP) of cGMP generation in CHO-K1/sGC cells, 4P fit, activity expressed as percentage of Compound A
T1 construct: expressed in transfected cells; host or cells: CHO-K1 (clone #7, CHO-K1/sGC)
T1 sequence (Q02108 1-690): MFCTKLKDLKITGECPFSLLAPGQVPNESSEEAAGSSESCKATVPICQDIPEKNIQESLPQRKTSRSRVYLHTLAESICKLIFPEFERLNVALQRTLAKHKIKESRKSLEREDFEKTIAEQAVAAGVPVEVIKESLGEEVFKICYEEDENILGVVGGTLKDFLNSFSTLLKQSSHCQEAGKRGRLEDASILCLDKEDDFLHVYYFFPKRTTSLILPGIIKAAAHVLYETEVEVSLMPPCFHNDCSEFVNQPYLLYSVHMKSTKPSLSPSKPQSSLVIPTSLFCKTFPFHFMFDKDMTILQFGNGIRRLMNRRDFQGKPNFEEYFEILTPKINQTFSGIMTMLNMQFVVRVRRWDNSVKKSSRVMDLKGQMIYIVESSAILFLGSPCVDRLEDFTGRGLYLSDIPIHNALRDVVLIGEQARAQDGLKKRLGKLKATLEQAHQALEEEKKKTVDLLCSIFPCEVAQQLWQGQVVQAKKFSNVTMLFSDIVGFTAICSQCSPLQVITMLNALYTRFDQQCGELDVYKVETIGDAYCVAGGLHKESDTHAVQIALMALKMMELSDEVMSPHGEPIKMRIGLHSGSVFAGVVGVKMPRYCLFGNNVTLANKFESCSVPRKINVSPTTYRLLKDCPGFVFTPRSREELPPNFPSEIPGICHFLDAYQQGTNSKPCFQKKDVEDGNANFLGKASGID
T1 sequence (Q02153 1-619): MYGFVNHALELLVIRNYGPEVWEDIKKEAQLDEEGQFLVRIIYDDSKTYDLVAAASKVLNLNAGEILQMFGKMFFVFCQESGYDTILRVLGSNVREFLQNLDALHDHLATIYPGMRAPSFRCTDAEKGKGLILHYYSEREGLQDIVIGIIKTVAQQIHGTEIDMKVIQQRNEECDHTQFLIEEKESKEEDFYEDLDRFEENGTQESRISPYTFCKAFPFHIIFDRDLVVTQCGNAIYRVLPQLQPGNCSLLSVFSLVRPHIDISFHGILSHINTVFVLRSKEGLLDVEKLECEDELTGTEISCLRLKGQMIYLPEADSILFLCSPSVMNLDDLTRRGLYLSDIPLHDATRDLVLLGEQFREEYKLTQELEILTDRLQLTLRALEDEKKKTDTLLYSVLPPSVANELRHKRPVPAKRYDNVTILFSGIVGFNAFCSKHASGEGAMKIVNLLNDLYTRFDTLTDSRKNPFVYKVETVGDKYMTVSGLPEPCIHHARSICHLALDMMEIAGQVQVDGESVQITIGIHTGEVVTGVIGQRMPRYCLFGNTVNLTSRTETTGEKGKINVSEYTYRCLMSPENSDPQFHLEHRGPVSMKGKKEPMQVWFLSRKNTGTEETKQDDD
Method in brief: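 Stable CHO-K1/sGC cells in EBSS buffer with 5 mM MgCl2, 0.05% BSA and 0.5 mM IBMX were incubated with compound (2.5% DMSO final) ±1 μM DETA-NO for 1 hr at 37° C. cGMP was measured by HTRF. Activation is expressed as % of reference HDA Compound A maximum, with IP and max fold induction from a 4P fit.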

[1] = test system: Spontaneously hypertensive rats (SHR); experiment: Acute efficacy in spontaneously hypertensive rats (SHR): telemetry blood pressure lowering after a single oral dose; type: in vivo, rat
Method in brief: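 Male SHR carrying aortic telemetry implants (14-day recovery) received a single oral gavage of compound or vehicle (10% transcutol/20% Cremophor/70% water). Conscious blood pressure was sampled 30 s every 10 min and averaged hourly; change was taken against the prior-day vehicle baseline, reported as maximum peak SBP decrease at a given PO dose (mpk).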

Row | SMILES | Emax (sGC α1/β1 heterodimer) | EC50 (sGC α1/β1 heterodimer) | Maximum peak decrease of systolic blood pressure (SBP) in SHR, Cat. ([1]; P.O. 3.0 mpk) | Maximum peak decrease of systolic blood pressure (SBP) in SHR, Cat. ([1]; P.O. 1.0 mpk) | Maximum peak decrease of systolic blood pressure (SBP) in SHR, Cat. ([1]; P.O. 2.0 mpk)
1 | Cc1ccc(C2(C)C(=O)Nc3nc(-c4cn5ccnc5c(CCC(F)(F)F)n4)nc(N)c32)cc1 (stereo not drawn) [Example 185A, 4-amino-5-methyl-5-(p-tolyl)-2-(8-(3,3,3-trifluoropropyl)imidazo[1,2-a]pyrazin-6-yl)-5H-pyrrolo[2,3-d]pyrimidin-6(7H)-one] | 132% | 235 nM | C (Category C=SBP in SHRs>40 mmHg) | – | –
2 | CC1(c2ccc(C(F)(F)F)cc2)C(=O)Nc2nc(-c3cn4ccnc4c(CCC(F)(F)F)n3)nc(N)c21 (stereo not drawn) [Example 189B, 4-amino-5-methyl-5-(4-(trifluoromethyl)phenyl)-2-(8-(3,3,3-trifluoropropyl)imidazo[1,2-a]pyrazin-6-yl)-5H-pyrrolo[2,3-d]pyrimidin-6(7H)-one] | 143% | 211 nM | B (Category B=SBP in SHRs 20-40 mmHg) | – | –
3 | CCc1nc(-c2nc(N)c3c(n2)NC(=O)C3(C)c2ccc(Cl)cc2)cn2ccnc12 (single isomer, unassigned) [Example 1A, 4-Amino-5-(4-chlorophenyl)-2-(8-ethylimidazo[1,2-a]pyrazin-6-yl)-5-methyl-5H-pyrrolo[2,3-d]pyrimidin-6(7H)-one] | 124% | 894 nM | – | B (Category B=SBP in SHRs 20-40 mmHg) | –
4 | CC1(c2ccc(Cl)cc2F)C(=O)Nc2nc(-c3cn4ccnc4cn3)nc(N)c21 (stereo not drawn) [Example 136A, 4-amino-5-(4-chloro-2-fluorophenyl)-2-(imidazo[1,2-a]pyrazin-6-yl)-5-methyl-5H-pyrrolo[2,3-d]pyrimidin-6(7H)-one] | 129% | 77 nM | – | B (Category B=SBP in SHRs 20-40 mmHg) | –
5 | CC1(c2nnc(C3CC3)s2)C(=O)Nc2nc(-c3cn4ccnc4c(Cc4ccc(F)cc4)n3)nc(N)c21 (stereo not drawn) [Example 32A, 4-amino-5-(5-cyclopropyl-1,3,4-thiadiazol-2-yl)-2-(8-(4-fluorobenzyl)imidazo[1,2-a]pyrazin-6-yl)-5-methyl-5H-pyrrolo[2,3-d]pyrimidin-6(7H)-one] | 137% | 58 nM | – | B (Category B=SBP in SHRs 20-40 mmHg) | –
6 | CCc1nnc(C2(C3CC3)C(=O)Nc3nc(-c4cn5ccnc5c(CCC(F)(F)C(F)(F)F)n4)nc(N)c32)s1 (single isomer, unassigned) [Example 30A, 4-Amino-5-cyclopropyl-5-(5-ethyl-1,3,4-thiadiazol-2-yl)-2-(8-(3,3,4,4,4-pentafluorobutyl)imidazo[1,2-a]pyrazin-6-yl)-5H-pyrrolo[2,3-d]pyrimidin-6(7H)-one] | 113% | 358 nM | C (Category C=SBP in SHRs>40 mmHg) | – | –
7 | Nc1nc(-c2cn3ccnc3c(CCC(F)(F)C(F)(F)F)n2)nc2c1C(c1cncc(F)c1)(C1CC1)C(=O)N2 (stereo not drawn) [Example 353B, 4-amino-5-cyclopropyl-5-(5-fluoropyridin-3-yl)-2-(8-(3,3,4,4,4-pentafluorobutyl)imidazo[1,2-a]pyrazin-6-yl)-5H-pyrrolo[2,3-d]pyrimidin-6(7H)-one] | 168% | 1030 nM | A (Category A=SBP in SHRs<20 mmHg) | – | –
8 | CC(C)c1ccc(C2(C)C(=O)Nc3nc(-c4cn5ccnc5c(CCC(F)(F)C(F)(F)F)n4)nc(N)c32)cn1 (stereo not drawn) [Example 251B, 4-amino-5-(6-isopropylpyridin-3-yl)-5-methyl-2-(8-(3,3,4,4,4-pentafluorobutyl)imidazo [1,2-a]pyrazin-6-yl)-5H-pyrrolo[2,3-d]pyrimidin-6(7H)-one] | 85% | 100 nM | B (Category B=SBP in SHRs 20-40 mmHg) | – | –
9 | CCOc1ccc(C2(C)C(=O)Nc3nc(-c4cn5ccnc5c(CCCC(F)(F)F)n4)nc(N)c32)nc1 (stereo not drawn) [Example 216A, 4-amino-5-(5-ethoxypyridin-2-yl)-5-methyl-2-(8-(4,4,4-trifluorobutyl)imidazo[1,2-a]pyrazin-6-yl)-5H-pyrrolo[2,3-d]pyrimidin-6(7H)-one] | 77% | 146 nM | – | B (Category B=SBP in SHRs 20-40 mmHg) | –
10 | CCCc1nc(-c2nc(N)c3c(n2)NC(=O)C3(C)c2ccc(C(F)(F)F)cc2)cn2ccnc12 (stereo not drawn) [Example 131B, 4-amino-5-methyl-2-(8-propylimidazo[1,2-a]pyrazin-6-yl)-5-(4-(trifluoromethyl)phenyl)-5H-pyrrolo[2,3-d]pyrimidin-6(7H)-one] | 88% | 178 nM | – | B (Category B=SBP in SHRs 20-40 mmHg) | –
11 | CCCc1nc(-c2nc(N)c3c(n2)NC(=O)C3(c2ccc(Cl)c(F)c2)C2CC2)cn2ccnc12 (stereo not drawn) [Example 327A, 4-amino-5-(4-chloro-3-fluorophenyl)-5-cyclopropyl-2-(8-propylimidazo[1,2-a]pyrazin-6-yl)-5H-pyrrolo[2,3-d]pyrimidin-6(7H)-one] | 112% | 134 nM | – | A (Category A=SBP in SHRs<20 mmHg) | –
12 | CC1(c2noc(C3CC3)n2)C(=O)Nc2nc(-c3cn4ccnc4c(CCC(F)(F)C(F)(F)F)n3)nc(N)c21 (single isomer, unassigned) [Example 333B, 4-amino-5-(5-cyclopropyl-1,2,4-oxadiazol-3-yl)-5-methyl-2-(8-(3,3,4,4,4-pentafluorobutyl)imidazo[1,2-a]pyrazin-6-yl)-5H-pyrrolo[2,3-d]pyrimidin-6(7H)-one] | 81% | 84 nM | – | – | B (Category B=SBP in SHRs 20-40 mmHg)
13 | CCc1nc(-c2nc(N)c3c(n2)NC(=O)C3(C)c2ccc(Cl)c(F)c2)cn2ccnc12 (stereo not drawn) [Example 314B, 4-amino-5-(4-chloro-3-fluorophenyl)-2-(8-ethylimidazo[1,2-a]pyrazin-6-yl)-5-methyl-5H-pyrrolo[2,3-d]pyrimidin-6(7H)-one] | 104% | 434 nM | B (Category B=SBP in SHRs 20-40 mmHg) | – | –
14 | Nc1nc(-c2cn3ccnc3c(CCCC(F)(F)F)n2)nc2c1C(c1ccc(Cl)cn1)(C1CC1)C(=O)N2 (stereo not drawn) [Example 218B, 4-amino-5-(5-chloropyridin-2-yl)-5-cyclopropyl-2-(8-(4,4,4-trifluorobutyl)imidazo[1,2-a]pyrazin-6-yl)-5H-pyrrolo[2,3-d]pyrimidin-6(7H)-one] | 126% | 253 nM | – | C (Category C=SBP in SHRs>40 mmHg) | –
15 | CCc1ccc(C2(C)C(=O)Nc3nc(-c4cn5ccnc5c(CCC(F)(F)C(F)(F)F)n4)nc(N)c32)cn1 (stereo not drawn) [Example 243B, 4-amino-5-(6-ethylpyridin-3-yl)-5-methyl-2-(8-(3,3,4,4,4-pentafluorobutyl)imidazo [1,2-a]pyrazin-6-yl)-5H-pyrrolo[2,3-d]pyrimidin-6(7H)-one] | 106% | 208 nM | – | A (Category A=SBP in SHRs<20 mmHg) | –
16 | CC1(c2ncccn2)C(=O)Nc2nc(-c3cn4ccnc4c(CCC(F)(F)C(F)(F)F)n3)nc(N)c21 (stereo not drawn) [Example 220B, 4-amino-5-methyl-2-(8-(3,3,4,4,4-pentafluorobutyl)imidazo [1,2-a]pyrazin-6-yl)-5-(pyrimidin-2-yl)-5H-pyrrolo[2,3-d]pyrimidin-6(7H)-one] | 100% | 409 nM | A (Category A=SBP in SHRs<20 mmHg) | – | –
